Data taken from patent US7759350B2, “Pyrimidine carboxamides” (Orchid Research Laboratories Ltd., priority 2005, dated 2010).

Key:
TNF-α = experiment: In vitro measurement of TNF-α in human PBMC; format: cell-based; conditions: LPS
Protocol: In Vitro Measurement of Tumor Necrosis Factor Alpha (TNF-α)
This assay determines the effect of test compounds on the production of TNF-α in human Peripheral Blood Mononuclear Cells (PBMC). Compounds were tested for their ability to inhibit the activity of TNF-α in human PBMC. PBMC were isolated from blood (from healthy volunteers) using BD Vacutainer CPT™ (Cell preparation tube, BD Bio Science) and suspended in RPMI medium (Physiol. Res. 52; 593-598, 2003). The test compounds were pre-incubated with PBMC (0.5 million/incubation well) for 15 minutes at 37° C. and then stimulated with Lipopolysaccharide (Escherichia coli: B4; 1 μg/ml) for 18 hours at 37° C. in 5% CO2. The levels of TNF-α in the cell culture medium were estimated using enzyme linked Immunosorbent assay performed in a 96 well format as per the procedure of the manufacturer (R&D Systems, Inc. 614 McKinley Place Nebr., Minneapolis, Minn. 55413, USA).

IL-6 = experiment: In vitro measurement of IL-6 in human PBMC; format: cell-based; conditions: LPS; for inhibition at 10 µM: Conc. 10 μM
Protocol: (§1) In vitro Measurement of Interleukin-6 (IL-6) & Interleukin-1β (IL1β)
(§2) This assay determines the effect of test compounds on the production of IL-6 and IL1β in human PBMC (Physiol. Res. 52: 593-598, 2003). Compounds were tested for their ability to inhibit the activity of IL-6 and IL1β in human PBMC. PBMC were isolated from blood using BD Vacutainer CPT™ Cell preparation tube (BD Bio Science) and suspended in RPMI medium. The test compounds were preincubated with PBMC (0.5 million/incubation well) for 15 minutes at 37° C. and then stimulated with Lipopolysaccharide (Escherichia coli: B4; 1 μg/ml) for 18 hours at 37° C. in 5% CO2. The levels of IL-6 and IL1β in cell culture medium were estimated using enzyme linked Immunosorbent assay performed in a 96 well format as per the procedure of the manufacturer (R&D Systems, Inc. 614 McKinley Place Nebr., Minneapolis, Minn. 55413, USA).

IL-1β = experiment: In vitro measurement of IL-1β in human PBMC; format: cell-based; conditions: LPS
Protocol: as §1, §2

NCI-H460 = experiment: Anti-cancer screen (MTT), NCI-H460; format: cell-based; conditions: Homo sapiens, NCI-H460; 48 hours, MTT
Protocol: (§3) Experimental drugs are screened for anti-cancer activity in three cell lines for their GI50, TGI and LC50 values (using five concentrations for each compound). The cell lines are maintained in DMEM containing 10% fetal bovine serum. 96 well microtiter plates are inoculated with cells in 100 μL for 24 h at 37° C., 5% CO2, 95% air and 100% relative humidity. 5000 HCT116 cells/well, 5000 NCIH460 cells/well, 10000 U251 cells/well and 5000 MDAMB231 cells/well are plated. A separate plate with these cell lines is also inoculated to determine cell viability before the addition of the compounds (T0).
Following 24 hours incubation, experimental drugs are added to the 96 well plates. […] Compounds are dissolved in dimethylsulfoxide (DMSO) to make 20 mM stock solutions on the day of drug addition and frozen at −20° C. […] Standard drugs whose anti-cancer activity has been well documented and which are regularly used are doxorubicin and SAHA.
(§4) Cells are incubated with compounds for 48 hours followed by the addition of 10 μL 3-(4,5-Dimethyl-2-thiazolyl)-2,5-diphenyl-2H-tetrazolium (MTT) solution per well and a subsequent incubation at 37° C., 5% CO2, 95% air and 100% relative humidity, protected from light. After 4 hours, well contents are aspirated carefully followed by addition of 150 μL DMSO per well. Plates are agitated to ensure solution of the formazan crystals in dimethylsulphoxide and absorbance read at 570 nm.
(§5) Percent growth is calculated for each compound's concentration relative to the control and zero measurement wells (To; viability right before compound addition). If a test well's O.D. value is greater than the To measurement for that cell line % Growth=(test−zero)/(control−zero)×100
(§6) If a test well's O.D. value is lower than the T0 measurement for that cell line, […]

HCT116 = experiment: Anti-cancer screen (MTT), HCT116; format: cell-based; conditions: Homo sapiens, HCT-116, 48 hours
Protocol: as §3
(§7) Following 24 hours incubation, experimental drugs are added to the 96 well plates. Each plate contains one of the above cell lines and the following in triplicate: five different concentrations (0.01, 0.1, 1, 10 and 100 μM) of four different compounds, appropriate dilutions of a cytotoxic standard and control (untreated) wells. Compounds are dissolved in dimethylsulfoxide (DMSO) to make 20 mM stock solutions on the day of drug addition and frozen at −20° C. Serial dilutions of these 20 mM stock solutions are made in complete growth medium such that 100 μL of these drug solutions in medium, of final concentrations equaling 0.01, 0.1, 1, 10 and 100 μM can be added to the cells in triplicate. Standard drugs whose anti-cancer activity has been well documented and which are regularly used are doxorubicin and SAHA.
as §4, §5, §6

U251 = experiment: Anti-cancer screen (MTT), U251; format: cell-based; conditions: Homo sapiens, U-251, 48 hours
Protocol: as §3, §7, §4, §5, §6

| SMILES | GI50 (NCI-H460) [nM] | GI50 (HCT116) [nM] | GI50 (U251) [nM] | further results |
| --- | --- | --- | --- | --- |
| CSc1ccc(-c2nc(O)c(C(=O)Nc3ccc(C)cc3)c(SC)n2)cc1 [Example 1, 4-Hydroxy-N-(4-methylphenyl)-6-(methylthio)-2-[4-(methylthio)phenyl]pyrimidine-5-carboxamide] |  |  |  | melting point: 302 to 305 °C |
| CSc1ccc(-c2nc(O)c(C(=O)Nc3ccc(C)c(C)c3)c(SC)n2)cc1 [Example 2, 4-Hydroxy-N-(3,4-dimethylphenyl)-6-(methylthio)-2-[4-(methylthio)phenyl]pyrimidine-5-carboxamide] |  |  |  | melting point: 303 to 305 °C |
| CNc1nc(-c2cccnc2)nc(NC)c1C(=O)Nc1ccc(C)c(C)c1 [Example 7, N-(3,4-Dimethylphenyl)-4,6-bis(methylamino)-2-pyridin-3-ylpyrimidine-5-carboxamide] |  |  |  | inhibition at 0.1 µM (TNF-α): 30.4%; inhibition at 10 µM (IL-6): 53.8%; IL-1β Inhibition (%) (IL-1β; Conc. 10 μM): Not active; melting point: 285 to 286 °C |
| CCc1ccc(NC(=O)c2c(NC)nc(-c3ccc(S(N)(=O)=O)cc3)nc2NC)cc1 [Example 16, 2-[4-(Aminosulfonyl)phenyl]-4,6-bis(methylamino)-N-(4-ethylphenyl)pyrimidine-5-carboxamide] |  |  |  | inhibition at 10 µM (TNF-α; at 10 μM): 53.1% |
| CCc1ccc(NC(=O)c2c(NC)nc(-c3ccc(S(N)(=O)=O)cc3)nc2SC)cc1 [Example 17, 2-[4-(Aminosulfonyl)phenyl]-N-(4-ethylphenyl)-4-(methylamino)-6-(methylthio)pyrimidine-5-carboxamide] |  |  |  | inhibition at 0.1 µM (TNF-α): 30.1% |
| CNc1nc(-c2ccncc2)nc(SC)c1C(=O)Nc1ccc(F)cc1 [Example 18, N-(4-Fluorophenyl)-4-(methylamino)-6-(methylthio)-2-pyridin-4-ylpyrimidine-5-carboxamide] | 2000 | 1200 |  |  |
| CNc1nc(-c2ccc(SC)cc2)nc(SC)c1C(=O)Nc1ccc(OC)cc1 [Example 20, 4-(Methylamino)-N-(4-methoxyphenyl)-6-(methylthio)-2-[4-(methylthio)phenyl]pyrimidine-5-carboxamide] | 3200 |  |  |  |
| CCc1ccc(NC(=O)c2c(NC)nc(-c3ccncc3)nc2SC)cc1 [Example 21, N-(4-Ethylphenyl)-4-(methylamino)-6-(methylthio)-2-pyridin-4-ylpyrimidine-5-carboxamide] | 400 | 9500 |  |  |
| CNc1nc(-c2ccncc2)nc(SC)c1C(=O)Nc1ccc(C)cc1 [Example 24, 4-(Methylamino)-N-(4-methylphenyl)-6-(methylthio)-2-pyridin-4-ylpyrimidine-5-carboxamide] | 4000 | 9900 |  |  |
| CSc1ccc(-c2nc(NCCO)c(C(=O)Nc3ccc(C)c(C)c3)c(SC)n2)cc1 [Example 32, N-(3,4-Dimethylphenyl)-4-[(2-hydroxyethyl)amino]-6-(methylthio)-2-[4-(methylthio)phenyl]pyrimidine-5-carboxamide] |  | 4000 | 3000 |  |
| CNc1nc(-c2ccncc2)nc(SC)c1C(=O)Nc1ccc(C(C)C)cc1 [Example 34, N-(4-Isoproylphenyl)-4-(methylamino)-6-(methylthio)-2-pyridin-4-ylpyrimidine-5-carboxamide] | 900 | 9000 |  |  |
| CNc1nc(-c2cccnc2)nc(SC)c1C(=O)Nc1ccc(OC)cc1.O=P(O)(O)O [Example 59, N-(4-Methoxyphenyl)-4-(methylamino)-6-(methylthio)-2-pyridin-3-ylpyrimidine-5-carboxamide orthophosphoric acid salt] |  |  |  | melting point: 222 to 225 °C |

Second part, led by results:

| GI50 (NCI-H460) [nM] | GI50 (HCT116) [nM] | GI50 (U251) [nM] | SMILES | further results |
| --- | --- | --- | --- | --- |
| 3000 |  | 1800 | CCCCc1ccc(NC(=O)c2c(NC)nc(-c3ccc(SC)cc3)nc2SC)cc1 [Example 36] | inhibition at 0.1 µM (IL-6; Conc. 0.1 μM): 26.6%; IL-1β Inhibition (%) (IL-1β; Conc. 0.1 μM): Not active |
| 2000 |  | 90 | CNc1nc(-c2ccc(SC)cc2)nc(SC)c1C(=O)Nc1ccc(C)cc1C [Example 39, N-(2,4-Dimethylphenyl)-4-(methylamino)-6-(methylthio)-2-[4-(methylthio)phenyl]pyrimidine-5-carboxamide] |  |
| 500 | 2000 | 100 | CCOc1ccc(NC(=O)c2c(NC)nc(-c3ccc(SC)cc3)nc2SC)cc1 [Example 40, N-(4-Ethoxyphenyl)-4-(methylamino)-6-(methylthio)-2-[4-(methylthio)phenyl]pyrimidine-5-carboxamide] | inhibition at 10 µM (IL-6): 61.5%; IL-1β Inhibition (%) (IL-1β; Conc. 10 μM): Not active |
| 3000 | 4000 | 5000 | CSc1ccc(-c2nc(SC)c(C(=O)Nc3ccc(C)c(C)c3)c(N3CCNCC3)n2)cc1 [Example 42, N-(3,4-Dimethylphenyl)-6-(methylthio)-2-[4-(methylthio)phenyl]-4-piperazin-1-ylpyrimidine-5-carboxamide] | inhibition at 10 µM (IL-6): 92.2%; IL-1β Inhibition (%) (IL-1β; Conc. 10 μM): Not active |
| 400 |  | 700 | CNc1nc(-c2ccc(F)cc2)nc(SC)c1C(=O)Nc1ccc(SC)cc1 [Example 45, 2-(4-Fluorophenyl)-4-(methylamino)-6-(methylthio)-N-[4-(methylthio)phenyl]pyrimidine-5-carboxamide] |  |
| 200 |  | 200 | CSc1nc(-c2ccncc2)nc(NCCO)c1C(=O)Nc1ccc(Br)cc1 [Example 46, N-(4-Bromophenyl)-4-[(2-hydroxyethyl)amino]-6-(methylthio)-2-pyridin-4-ylpyrimidine-5-carboxamide] |  |
| 100 |  | 300 | CSc1nc(-c2ccncc2)nc(NCCO)c1C(=O)Nc1ccc(Cl)cc1 [Example 47, N-(4-Chlorophenyl)-4-[(2-hydroxyethyl)amino]-6-(methylthio)-2-pyridin-4-ylpyrimidine-5-carboxamide] |  |
| 5000 | 2500 | 3000 | CSc1ccc(-c2nc(NN)c(C(=O)Nc3ccc(C)c(C)c3)c(SC)n2)cc1 [Example 48, N-(3,4-Dimethylphenyl)-4-hydrazino-6-(methylthio)-2-[4-(methylthio)phenyl]pyrimidine-5-carboxamide] |  |
| 7000 |  | 4000 | CNc1nc(-c2ccc(N(C)C)cc2)nc(SC)c1C(=O)Nc1ccc(OC)cc1 [Example 57, 2-[4-(Dimethylamino)phenyl]-4-(methylamino)-N-(4-methoxyphenyl)-6-(methylthio)pyrimidine-5-carboxamide] |  |
